According to ChEMBL document CHEMBL1137480, “Synthesis and structure-activity relationship of 7-(substituted)-aminomethyl-4-quinolone-3-carboxylic acid derivatives” (2007):
≈ marks a conversion by molar mass, not a printed value.

Experiments:
Assay type in all cases: functional
Shigella boydii = assay: Antibacterial activity against Shigella boydii 51313 after 24 hrs by agar dilution method
Streptococcus pneumoniae = assay: Antibacterial activity against Streptococcus pneumoniae 31002 after 24 hrs by agar dilution method
Klebsiella pneumoniae = assay: Antibacterial activity against Klebsiella pneumoniae 46101 after 24 hrs by agar dilution method
[1] = test system: Staphylococcus epidermidis; assay: Antibacterial activity against Staphylococcus epidermidis 26069 after 24 hrs by agar dilution method
Staphylococcus aureus = assay: Antibacterial activity against Staphylococcus aureus 26003 after 24 hrs by agar dilution method
Salmonella = assay: Antibacterial activity against […] 48107 after 24 hrs by agar dilution method

Compound | MIC (Shigella boydii) [µg/mL] | MIC (Streptococcus pneumoniae) [µg/mL] | MIC (Klebsiella pneumoniae) [µg/mL] | MIC [1] [µg/mL] | MIC (Staphylococcus aureus) [µg/mL] | MIC (Salmonella) [µg/mL]
C[C@H]1COc2c(CNc3cccc(Cl)c3)c(F)cc3c(=O)c(C(=O)O)cn1c23 | 1.56 (≈ 3.87 µM) | 0.195 (≈ 0.484 µM) | 6.25 (≈ 15.5 µM) | 3.13 (≈ 7.77 µM) | 1.56 (≈ 3.87 µM) | 6.25 (≈ 15.5 µM)
C[C@H]1COc2c(CN3CCN(C)CC3)c(F)cc3c(=O)c(C(=O)O)cn1c23 | 1.56 (≈ 4.16 µM) | 1.56 (≈ 4.16 µM) | 0.78 (≈ 2.08 µM) | > 6.25 | > 6.25 | 1.56 (≈ 4.16 µM)
O=C(O)c1cn(C2CC2)c2c(F)c(CNc3cccc(Cl)c3)c(F)cc2c1=O | 0.78 (≈ 1.93 µM) | ≤ 0.049 | 1.56 (≈ 3.85 µM) | 1.56 (≈ 3.85 µM) | 0.195 (≈ 0.482 µM) | 1.56 (≈ 3.85 µM)
Cc1ccc(NCc2c(F)cc3c(=O)c(C(=O)O)cn4c3c2OC[C@@H]4C)cc1C | 1.56 (≈ 3.94 µM) | 0.195 (≈ 0.492 µM) | 6.25 (≈ 15.8 µM) | 3.13 (≈ 7.9 µM) | 3.13 (≈ 7.9 µM) | 3.13 (≈ 7.9 µM)
Cc1ccc(NCc2c(F)cc3c(=O)c(C(=O)O)cn4c3c2OC[C@@H]4C)cc1 | 0.78 (≈ 2.04 µM) | 0.098 (≈ 0.256 µM) | 3.13 (≈ 8.19 µM) | 3.13 (≈ 8.19 µM) | 0.78 (≈ 2.04 µM) | 1.56 (≈ 4.08 µM)
O=C(O)c1cn(C2CC2)c2c(F)c(CNc3ccc(F)c(Cl)c3)c(F)cc2c1=O | 1.56 (≈ 3.69 µM) | 0.39 (≈ 0.922 µM) | 1.56 (≈ 3.69 µM) | 1.56 (≈ 3.69 µM) | 0.39 (≈ 0.922 µM) | 0.78 (≈ 1.84 µM)
CC1COc2c(Cn3ccnc3)c(F)cc3c(=O)c(C(=O)O)cn1c23 (stereo not drawn) | 0.78 (≈ 2.27 µM) | 0.78 (≈ 2.27 µM) | 0.195 (≈ 0.568 µM) | 3.13 (≈ 9.12 µM) | 3.13 (≈ 9.12 µM) | 0.39 (≈ 1.14 µM)
CC1COc2c(CNc3ccc(Cl)cc3)c(F)cc3c(=O)c(C(=O)O)cn1c23 (stereo not drawn) | 1.56 (≈ 3.87 µM) | ≤ 0.049 | > 6.25 | 0.78 (≈ 1.94 µM) | 0.195 (≈ 0.484 µM) | 1.56 (≈ 3.87 µM)
CCCCNCc1c(F)cc2c(=O)c(C(=O)O)cn(C3CC3)c2c1F | 0.39 (≈ 1.11 µM) | 3.13 (≈ 8.93 µM) | ≤ 0.049 | > 6.25 | > 6.25 | 0.195 (≈ 0.557 µM)
C[C@H]1COc2c(CNc3ccccc3)c(F)cc3c(=O)c(C(=O)O)cn1c23 | 0.39 (≈ 1.06 µM) | 0.098 (≈ 0.266 µM) | 0.78 (≈ 2.12 µM) | 1.56 (≈ 4.23 µM) | 1.56 (≈ 4.23 µM) | 0.78 (≈ 2.12 µM)
CN1CCN(Cc2c(F)cc3c(=O)c(C(=O)O)cn(C4CC4)c3c2F)CC1 | 1.56 (≈ 4.13 µM) | 1.56 (≈ 4.13 µM) | 1.56 (≈ 4.13 µM) | 12.5 (≈ 33.1 µM) | 12.5 (≈ 33.1 µM) | 1.56 (≈ 4.13 µM)

The remaining lines, values ahead:

MIC (Shigella boydii) [µg/mL] | MIC (Streptococcus pneumoniae) [µg/mL] | MIC (Klebsiella pneumoniae) [µg/mL] | MIC [1] [µg/mL] | MIC (Staphylococcus aureus) [µg/mL] | MIC (Salmonella) [µg/mL] | Compound
≤ 0.049 | 0.78 (≈ 2.42 µM) | ≤ 0.049 | > 6.25 | > 6.25 | 0.195 (≈ 0.605 µM) | CCNCc1c(F)cc2c(=O)c(C(=O)O)cn(C3CC3)c2c1F
0.39 (≈ 1.13 µM) | 0.78 (≈ 2.25 µM) | 0.049 (≈ 0.141 µM) | > 6.25 | 6.25 (≈ 18 µM) | 0.098 (≈ 0.283 µM) | C[C@H]1COc2c(CN3CCCC3)c(F)cc3c(=O)c(C(=O)O)cn1c23
0.39 (≈ 0.976 µM) | 0.098 (≈ 0.245 µM) | 0.78 (≈ 1.95 µM) | 1.56 (≈ 3.91 µM) | 0.39 (≈ 0.976 µM) | 0.78 (≈ 1.95 µM) | Cc1cc(C)nc(NCc2c(F)cc3c(=O)c(C(=O)O)cn(C4CC4)c3c2F)c1
0.098 (≈ 0.293 µM) | 0.195 (≈ 0.583 µM) | ≤ 0.049 | 6.25 (≈ 18.7 µM) | 3.13 (≈ 9.36 µM) | 0.098 (≈ 0.293 µM) | O=C(O)c1cn(C2CC2)c2c(F)c(CNC3CC3)c(F)cc2c1=O
0.195 (≈ 0.491 µM) | 0.195 (≈ 0.491 µM) | 0.39 (≈ 0.981 µM) | 0.78 (≈ 1.96 µM) | 0.78 (≈ 1.96 µM) | 0.78 (≈ 1.96 µM) | Cc1cc(C)nc(NCc2c(F)cc3c(=O)c(C(=O)O)cn4c3c2OC[C@@H]4C)c1
0.39 (≈ 1.17 µM) | 3.13 (≈ 9.36 µM) | 0.195 (≈ 0.583 µM) | > 6.25 | > 6.25 | 0.39 (≈ 1.17 µM) | CCCNCc1c(F)cc2c(=O)c(C(=O)O)cn3c2c1OC[C@@H]3C
≤ 0.049 | 0.39 (≈ 1.17 µM) | ≤ 0.049 | 3.13 (≈ 9.42 µM) | 3.13 (≈ 9.42 µM) | ≤ 0.049 | CC1COc2c(CNC3CC3)c(F)cc3c(=O)c(C(=O)O)cn1c23 (stereo not drawn)
0.39 (≈ 1.05 µM) | 0.049 (≈ 0.132 µM) | 0.78 (≈ 2.11 µM) | 1.56 (≈ 4.21 µM) | 0.78 (≈ 2.11 µM) | 0.39 (≈ 1.05 µM) | O=C(O)c1cn(C2CC2)c2c(F)c(CNc3ccccc3)c(F)cc2c1=O
0.195 (≈ 0.609 µM) | 1.56 (≈ 4.87 µM) | 0.049 (≈ 0.153 µM) | > 6.05 | > 6.25 | 0.195 (≈ 0.609 µM) | CCNCc1c(F)cc2c(=O)c(C(=O)O)cn3c2c1OC[C@@H]3C
0.39 (≈ 1.13 µM) | 0.78 (≈ 2.26 µM) | 0.195 (≈ 0.565 µM) | > 6.25 | 6.25 (≈ 18.1 µM) | 0.195 (≈ 0.565 µM) | O=C(O)c1cn(C2CC2)c2c(F)c(Cn3ccnc3)c(F)cc2c1=O
0.195 (≈ 0.463 µM) | ≤ 0.049 | 0.195 (≈ 0.463 µM) | 0.195 (≈ 0.463 µM) | 0.098 (≈ 0.233 µM) | 0.39 (≈ 0.927 µM) | C[C@H]1COc2c(CNc3ccc(F)c(Cl)c3)c(F)cc3c(=O)c(C(=O)O)cn1c23
0.195 (≈ 0.557 µM) | 1.56 (≈ 4.45 µM) | 0.098 (≈ 0.28 µM) | > 6.25 | > 6.25 | ≤ 0.049 | CC(C)CNCc1c(F)cc2c(=O)c(C(=O)O)cn(C3CC3)c2c1F
